According to ChEMBL document CHEMBL1130855, “Carbohydrate modifications in the spirostane cellobioside cholesterol absorption inhibitor series” (1998):

How the values were obtained:
Cricetinae gen. sp. [1] = experiment: Inhibitory activity against cholesterol absorption in the hamster.; type: functional
Cricetinae gen. sp. [2] = experiment: Inhibition of cholesterol absorption in the hamster.; type: functional

| Compound | Relative potency (Cricetinae gen. sp. [1]) | ED50 (Cricetinae gen. sp. [2]) [mg/kg] |
| --- | --- | --- |
| C[C@@H]1CC[C@@]2(OC1)OC1C[C@H]3[C@@H]4CC[C@H]5C[C@@H](O[C@@H]6O[C@@H](C)[C@@H](O[C@@H]7O[C@@H](CO)[C@@H](O)[C@H](O)[C@@H]7O)[C@H](O)[C@@H]6O)CC[C@]5(C)[C@H]4CC(=O)[C@]3(C)C1[C@@H]2C (stereo partly specified) | 167 | 5 |
| C[C@@H]1CC[C@@]2(OC1)O[C@H]1C[C@H]3[C@@H]4CC[C@H]5C[C@@H](O[C@@H]6O[C@@H](CO)[C@@H](O[C@@H]7O[C@@H](C)[C@@H](O)[C@H](O)[C@@H]7O)[C@H](O)[C@@H]6O)CC[C@]5(C)[C@H]4CC(=O)[C@]3(C)[C@H]1[C@@H]2C | 107 | 3.2 |
| C[C@@H]1CC[C@@]2(OC1)O[C@H]1C[C@H]3[C@@H]4CC[C@H]5C[C@@H](O[C@@H]6O[C@@H](COC(=O)Nc7ccccc7F)[C@@H](O[C@@H]7O[C@@H](COC(=O)Nc8ccccc8F)[C@@H](OC(=O)Nc8ccccc8F)[C@H](O)[C@@H]7O)[C@H](O)[C@@H]6O)CC[C@]5(C)[C@H]4C(=O)C[C@]3(C)[C@H]1[C@@H]2C | 8 | 0.2 |
| C[C@@H]1CC[C@@]2(OC1)O[C@H]1C[C@H]3[C@@H]4CC[C@H]5C[C@@H](O[C@@H]6O[C@@H](CO)[C@@H](O[C@@H]7O[C@@H](CO)[C@@H](OC(=O)Nc8ccccc8F)[C@H](O)[C@@H]7O)[C@H](O)[C@@H]6O)CC[C@]5(C)[C@H]4C(=O)C[C@]3(C)[C@H]1[C@@H]2C | 4 | 0.1 |
| C[C@@H]1CC[C@@]2(OC1)O[C@H]1C[C@H]3[C@@H]4CC[C@H]5C[C@@H](O[C@@H]6O[C@@H](CO)[C@@H](O[C@@H]7O[C@@H](COC(=O)Nc8ccccc8F)[C@@H](O)[C@H](O)[C@@H]7O)[C@H](O)[C@@H]6O)CC[C@]5(C)[C@H]4C(=O)C[C@]3(C)[C@H]1[C@@H]2C | 8 | 0.2 |
| C[C@@H]1CC[C@@]2(OC1)O[C@H]1C[C@H]3[C@@H]4CC[C@H]5C[C@@H](O[C@@H]6O[C@@H](CO)[C@@H](O[C@@H]7O[C@@H](C)C[C@H](O)[C@@H]7O)[C@H](O)[C@@H]6O)CC[C@]5(C)[C@H]4CC(=O)[C@]3(C)[C@H]1[C@@H]2C | 100 | 3 |
| C[C@@H]1CC[C@@]2(OC1)O[C@H]1C[C@H]3[C@@H]4CC[C@H]5C[C@@H](O[C@@H]6O[C@@H](C)[C@@H](O[C@@H]7O[C@@H](C)[C@@H](O)[C@H](O)[C@@H]7O)[C@H](O)[C@@H]6O)CC[C@]5(C)[C@H]4CC(=O)[C@]3(C)[C@H]1[C@@H]2C | 167 | 5 |
| C[C@@H]1CC[C@@]2(OC1)O[C@H]1C[C@H]3[C@@H]4CC[C@H]5C[C@@H](O[C@@H]6O[C@@H](CO)[C@@H](O[C@@H]7O[C@@H](CO)C[C@H](O)[C@@H]7O)[C@H](O)[C@@H]6O)CC[C@]5(C)[C@H]4CC(=O)[C@]3(C)[C@H]1[C@@H]2C | 433 | 13 |
| C[C@@H]1CC[C@@]2(OC1)O[C@H]1C[C@H]3[C@@H]4CC[C@H]5C[C@@H](O[C@@H]6O[C@@H](CO)[C@@H](O[C@@H]7O[C@@H](COC(=O)Nc8ccccc8F)[C@@H](OC(=O)Nc8ccccc8F)[C@H](O)C7O)[C@H](O)[C@@H]6O)CC[C@]5(C)[C@H]4CC(=O)[C@]3(C)[C@H]1[C@@H]2C (stereo partly specified) | 2.3 | 0.07 |
| C[C@@H]1CC[C@@]2(OC1)O[C@H]1C[C@H]3[C@@H]4CC[C@H]5C[C@@H](O[C@@H]6O[C@@H](CO)[C@@H](O[C@@H]7O[C@@H](COC(=O)Nc8ccccc8F)[C@@H](OC(=O)Nc8ccccc8F)[C@H](O)C7O)[C@H](O)[C@@H]6O)CC[C@]5(C)[C@H]4C(=O)C[C@]3(C)[C@H]1[C@@H]2C (stereo partly specified) | 1 | 0.025 |
| C[C@@H]1CC[C@@]2(OC1)O[C@H]1C[C@H]3[C@@H]4CC[C@H]5C[C@@H](O[C@@H]6O[C@@H](COC(=O)Nc7ccccc7F)C(O[C@@H]7O[C@@H](CO)C(O)[C@H](O)C7O)[C@H](O)C6O)CC[C@]5(C)[C@H]4C(=O)C[C@]3(C)[C@H]1[C@@H]2C (stereo partly specified) | 280 | 7 |
| C[C@@H]1CC[C@@]2(OC1)O[C@H]1C[C@H]3[C@@H]4CC[C@H]5C[C@@H](O[C@@H]6O[C@@H](CO)[C@@H](O[C@@H]7O[C@@H](COC(=O)Nc8ccccc8F)C[C@H](O)[C@@H]7O)[C@H](O)[C@@H]6O)CC[C@]5(C)[C@H]4CC(=O)[C@]3(C)[C@H]1[C@@H]2C | 5 | 0.15 |
| C[C@@H]1CC[C@@]2(OC1)O[C@H]1C[C@H]3[C@@H]4CC[C@H]5C[C@@H](O[C@@H]6O[C@@H](COC(=O)Nc7ccccc7F)[C@@H](O[C@@H]7O[C@@H](COC(=O)Nc8ccccc8F)[C@@H](O)[C@H](O)[C@@H]7O)[C@H](O)[C@@H]6O)CC[C@]5(C)[C@H]4C(=O)C[C@]3(C)[C@H]1[C@@H]2C | 32 | 0.8 |
| C[C@@H]1CC[C@@]2(OC1)O[C@H]1C[C@H]3[C@@H]4CC[C@H]5C[C@@H](O[C@@H]6O[C@@H](CO)[C@@H](O[C@@H]7O[C@@H](CO)[C@@H](OC(=O)Nc8ccccc8F)[C@H](OC(=O)Nc8ccccc8F)[C@@H]7O)[C@H](O)[C@@H]6O)CC[C@]5(C)[C@H]4C(=O)C[C@]3(C)[C@H]1[C@@H]2C | 4 | 0.1 |
| C[C@@H]1CC[C@@]2(OC1)O[C@H]1C[C@H]3[C@@H]4CC[C@H]5C[C@@H](O[C@@H]6O[C@@H](CO)[C@@H](O[C@@H]7O[C@@H](CO)[C@@H](OC(=O)Nc8ccccc8F)[C@H](O)[C@@H]7O)[C@H](O)[C@@H]6O)CC[C@]5(C)[C@H]4CC(=O)[C@]3(C)[C@H]1[C@@H]2C | 5 | 0.15 |
| C[C@@H]1CC[C@@]2(OC1)O[C@H]1C[C@H]3[C@@H]4CC[C@H]5C[C@@H](O[C@@H]6O[C@@H](CO)[C@@H](O[C@@H]7O[C@@H](COC(=O)Nc8ccccc8F)[C@@H](O)[C@H](O)[C@@H]7O)[C@H](O)[C@@H]6O)CC[C@]5(C)[C@H]4CC(=O)[C@]3(C)[C@H]1[C@@H]2C | 10 | 0.3 |
| C[C@@H]1CC[C@@]2(OC1)O[C@H]1C[C@H]3[C@@H]4CC[C@H]5C[C@@H](O[C@@H]6O[C@@H](CO)[C@@H](O[C@@H]7O[C@@H](C)[C@@H](OC(=O)Nc8ccccc8F)[C@H](O)[C@@H]7O)[C@H](O)[C@@H]6O)CC[C@]5(C)[C@H]4CC(=O)[C@]3(C)[C@H]1[C@@H]2C | 1 | 0.03 |
| C[C@@H]1CC[C@@]2(OC1)O[C@H]1C[C@H]3[C@@H]4CC[C@H]5C[C@@H](O[C@@H]6O[C@@H](CO)[C@@H](O[C@@H]7O[C@@H](CO)[C@@H](O)[C@H](O)[C@@H]7O)[C@H](O)[C@@H]6O)CC[C@]5(C)[C@H]4CC(=O)[C@]3(C)[C@H]1[C@@H]2C [CELLOBIOSYL HECOGENIN] | 333 | 10 |
